Experiments:
kochia = assay: Test A pre-/postemergence herbicide test; type: in vivo, Kochia scoparia
Outline: (§1)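 Formulated compound (non-phytotoxic solvent, surfactant) sprayed pre- onto soil of seeded loam/sand pots or post- onto seedlings at 1–2 leaves; ~10 d greenhouse; 0–100 visual control rating versus untreated.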

pigweed = assay: Test A pre-/postemergence herbicide test; type: in vivo, Amaranthus retroflexus
Outline: as §1

ragweed = assay: Test A pre-/postemergence herbicide test; type: in vivo, Ambrosia elatior
Outline: as §1

wheat = assay: Test A pre-/postemergence herbicide test; type: in vivo, Triticum aestivum; conditions: Postemergence
Outline: as §1

rice = assay: Test B flooded paddy test; type: in vivo, Oryza sativa; conditions: 500 g ai/ha, Flood; scale of 0 to 100 where 0 is no effect and 100 is complete control
Outline: (§2)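 Treatment was made at the 2-leaf stage by dosing the standing floodwater, kept 3 cm above soil level for the whole test. Greenhouse exposure lasted 13 to 15 days. Response is a visual percent rating relative to controls, where a dash indicates no test result.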

barnyardgrass [1] = assay: Test B flooded paddy test; type: in vivo, Echinochloa crus-galli; conditions: 500 g ai/ha, Flood; scale of 0 to 100 where 0 is no effect and 100 is complete control
Outline: as §2

barnyardgrass [2] = assay: Test A pre-/postemergence herbicide test; type: in vivo, Echinochloa crus-galli
Outline: as §1

ducksalad = assay: Test B flooded paddy test; type: in vivo, Heteranthera limosa; conditions: 500 g ai/ha, Flood; scale of 0 to 100 where 0 is no effect and 100 is complete control
Outline: as §2

ryegrass, Italian = assay: Test A pre-/postemergence herbicide test; type: in vivo, Lolium multiflorum
Outline: as §1

giant foxtail = assay: Test A pre-/postemergence herbicide test; type: in vivo, Setaria faberii
Outline: as §1

blackgrass = assay: Test A postemergence herbicide test; type: in vivo, Alopecurus myosuroides
Outline: (§3)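 Injury was rated visually about 10 days after treatment on a 0 (no effect) to 100 (complete control) scale, compared with untreated plants. Test chemicals were sprayed postemergence onto greenhouse plants 2–10 cm high at one to two leaves, grown in a loam–sand blend.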

sedge, umbrella = assay: Test B flooded paddy test; type: in vivo, Cyperus difformis; conditions: 500 g ai/ha, Flood; scale of 0 to 100 where 0 is no effect and 100 is complete control
Outline: as §2

galium = assay: Test A postemergence herbicide test; type: in vivo, Galium aparine
Outline: as §3

corn = assay: Test A pre-/postemergence herbicide test; type: in vivo, Zea mays; conditions: Postemergence
Outline: as §1

[3] = Postemergence, 125 g ai/ha, 0 to 100 scale, 0 is no effect, 100 is complete control
[4] = Postemergence, 500 g ai/ha, 0 to 100 scale (0 no effect, 100 complete control)
[5] = Preemergence, 125 g ai/ha, 0 to 100 scale where 0 is no effect and 100 is complete control
[6] = preemergence, 500 g ai/ha, 0 to 100 scale, 0 is no effect and 100 is complete control
[7] = Postemergence, 125 g ai/ha, visual rating on 0 to 100 scale (0 no effect, 100 complete control), approx. 10 days
[8] = 125 g ai/ha, visual rating on 0 to 100 scale (0 no effect, 100 complete control), approx. 10 days
[9] = 500 g ai/ha, 0 to 100 scale (0 no effect, 100 complete control)
[10] = Preemergence, 500 g ai/ha, visual rating on 0 to 100 scale (0 no effect, 100 complete control)
[11] = 125 g ai/ha, 0 to 100 scale, 0 is no effect, 100 is complete control

## O=C1NCC(c2cc3ccccc3o2)C1C(=O)Nc1ccccc1C(F)(F)F (stereo not shown) [Compound 283]
kochia; [3]
  Plant response rating, Kochia: 0
kochia; [4]
  Plant response rating, Kochia: 0
kochia; [5]
  Plant response rating, Kochia: 0
kochia; [6]
  Plant response rating, Kochia: 0
pigweed; [7]
  Plant response rating, Pigweed: 0
pigweed; [4]
  Plant response rating, Pigweed: 0
pigweed; [5]
  Plant response rating, Pigweed: 0
pigweed; [6]
  Plant response rating, Pigweed: 0
ragweed; [7]
  Plant response rating, Ragweed: 0
ragweed; [4]
  Plant response rating, Ragweed: 0
ragweed; [5]
  Plant response rating, Ragweed: 0
ragweed; [6]
  Plant response rating, Ragweed: 0
wheat; [8]
  Plant response rating, Wheat: 0
wheat; [9]
  Plant response rating, Wheat: 0
rice
  Plant response rating, Rice: 0
Barnyardgrass [1]
  Plant response rating, Barnyardgrass: 20
Barnyardgrass [2]; [3]
  Plant response rating, Barnyardgrass: 0
Barnyardgrass [2]; [4]
  Plant response rating, Barnyardgrass: 60
Barnyardgrass [2]; [5]
  Plant response rating, Barnyardgrass: 0
Barnyardgrass [2]; [6]
  Plant response rating, Barnyardgrass: 0
ducksalad
  Plant response rating, Ducksalad: 85
ryegrass, Italian; [7]
  Plant response rating, Ryegrass, Italian: 0
ryegrass, Italian; [4]
  Plant response rating, Ryegrass, Italian: 0
ryegrass, Italian; [5]
  Plant response rating, Ryegrass, Italian: 0
ryegrass, Italian; [10]
  Ryegrass, Italian plant response rating: 0
Giant foxtail; [3]
  Plant response rating, Foxtail, Giant: 0
Giant foxtail; [4]
  Plant response rating, Foxtail, Giant: 10
Giant foxtail; [5]
  Plant response rating, Foxtail, Giant: 0
Giant foxtail; [6]
  Plant response rating, Foxtail, Giant: 0
blackgrass; [11]
  Plant response rating, Blackgrass: 0
blackgrass; [9]
  Plant response rating, Blackgrass: 0
sedge, umbrella
  Plant response rating, Sedge, Umbrella: 0
galium; [11]
  Plant response rating, Galium: 0
galium; [9]
  Plant response rating, Galium: 0
corn; [11]
  Plant response rating, Corn: 0
corn; [9]
  Plant response rating, Corn: 0

## CSc1cccc(C2CNC(=O)C2C(=O)Nc2ccc(F)cc2F)c1 (stereo not shown) [Compound 288]
kochia; [7]
  Plant response rating, Kochia: 0
kochia; [4]
  Plant response rating, Kochia: 20
kochia; [5]
  Plant response rating, Kochia: 30
kochia; [6]
  Plant response rating, Kochia: 50
pigweed; [7]
  Plant response rating, Pigweed: 0
pigweed; [4]
  Plant response rating, Pigweed: 0
pigweed; [5]
  Plant response rating, Pigweed: 0
pigweed; [6]
  Plant response rating, Pigweed: 0
ragweed; [7]
  Plant response rating, Ragweed: 0
ragweed; [4]
  Plant response rating, Ragweed: 0
ragweed; [5]
  Plant response rating, Ragweed: 0
ragweed; [6]
  Plant response rating, Ragweed: 0
wheat; [8]
  Plant response rating, Wheat: 0
wheat; [9]
  Plant response rating, Wheat: 0
rice
  Plant response rating, Rice: 0
Barnyardgrass [1]
  Plant response rating, Barnyardgrass: 20
Barnyardgrass [2]; [7]
  Plant response rating, Barnyardgrass: 20
Barnyardgrass [2]; [4]
  Plant response rating, Barnyardgrass: 80
Barnyardgrass [2]; [5]
  Plant response rating, Barnyardgrass: 30
Barnyardgrass [2]; [6]
  Plant response rating, Barnyardgrass: 70
ducksalad
  Plant response rating, Ducksalad: 65
ryegrass, Italian; [7]
  Plant response rating, Ryegrass, Italian: 0
ryegrass, Italian; [4]
  Plant response rating, Ryegrass, Italian: 0
ryegrass, Italian; [5]
  Plant response rating, Ryegrass, Italian: 0
ryegrass, Italian; [10]
  Ryegrass, Italian plant response rating: 20
Giant foxtail; [7]
  Plant response rating, Foxtail, Giant: 20
Giant foxtail; [4]
  Plant response rating, Foxtail, Giant: 30
Giant foxtail; [5]
  Plant response rating, Foxtail, Giant: 30
Giant foxtail; [6]
  Plant response rating, Foxtail, Giant: 90
blackgrass; [8]
  Plant response rating, Blackgrass: 0
blackgrass; [9]
  Plant response rating, Blackgrass: 0
sedge, umbrella
  Plant response rating, Sedge, Umbrella: 0
galium; [8]
  Plant response rating, Galium: 0
galium; [9]
  Plant response rating, Galium: 0
corn; [8]
  Plant response rating, Corn: 0
corn; [9]
  Plant response rating, Corn: 0

## O=C1NCC(c2ccc(Cl)s2)C1C(=O)Nc1ccccc1C(F)(F)F (stereo not shown) [Compound 293]
kochia; [7]
  Plant response rating, Kochia: 0
kochia; [4]
  Plant response rating, Kochia: 0
kochia; [5]
  Plant response rating, Kochia: 0
kochia; [6]
  Plant response rating, Kochia: 0
pigweed; [7]
  Plant response rating, Pigweed: 0
pigweed; [4]
  Plant response rating, Pigweed: 0
pigweed; [5]
  Plant response rating, Pigweed: 0
pigweed; [6]
  Plant response rating, Pigweed: 0
ragweed; [7]
  Plant response rating, Ragweed: 0
ragweed; [4]
  Plant response rating, Ragweed: 0
wheat; [8]
  Plant response rating, Wheat: 0
wheat; [9]
  Plant response rating, Wheat: 0
rice
  Plant response rating, Rice: 0
Barnyardgrass [1]
  Plant response rating, Barnyardgrass: 35
Barnyardgrass [2]; [7]
  Plant response rating, Barnyardgrass: 50
Barnyardgrass [2]; [4]
  Plant response rating, Barnyardgrass: 70
Barnyardgrass [2]; [5]
  Plant response rating, Barnyardgrass: 20
Barnyardgrass [2]; [6]
  Plant response rating, Barnyardgrass: 70
ducksalad
  Plant response rating, Ducksalad: 95
ryegrass, Italian; [7]
  Plant response rating, Ryegrass, Italian: 0
ryegrass, Italian; [4]
  Plant response rating, Ryegrass, Italian: 0
ryegrass, Italian; [5]
  Plant response rating, Ryegrass, Italian: 0
ryegrass, Italian; [10]
  Ryegrass, Italian plant response rating: 0
Giant foxtail; [7]
  Plant response rating, Foxtail, Giant: 50
Giant foxtail; [4]
  Plant response rating, Foxtail, Giant: 70
Giant foxtail; [5]
  Plant response rating, Foxtail, Giant: 80
Giant foxtail; [6]
  Plant response rating, Foxtail, Giant: 90
blackgrass; [8]
  Plant response rating, Blackgrass: 0
blackgrass; [9]
  Plant response rating, Blackgrass: 10
sedge, umbrella
  Plant response rating, Sedge, Umbrella: 0
galium; [8]
  Plant response rating, Galium: 20
galium; [9]
  Plant response rating, Galium: 60
corn; [8]
  Plant response rating, Corn: 0
corn; [9]
  Plant response rating, Corn: 0

## O=C1NCC(c2ccc(Cl)s2)C1C(=O)Nc1cccc(F)c1F (stereo not shown) [Compound 294]
kochia; [7]
  Plant response rating, Kochia: 30
kochia; [4]
  Plant response rating, Kochia: 50
kochia; [5]
  Plant response rating, Kochia: 40
kochia; [6]
  Plant response rating, Kochia: 90
pigweed; [7]
  Plant response rating, Pigweed: 0
pigweed; [4]
  Plant response rating, Pigweed: 0
pigweed; [5]
  Plant response rating, Pigweed: 0
pigweed; [6]
  Plant response rating, Pigweed: 20
ragweed; [7]
  Plant response rating, Ragweed: 0
ragweed; [4]
  Plant response rating, Ragweed: 20
ragweed; [5]
  Plant response rating, Ragweed: 0
ragweed; [6]
  Plant response rating, Ragweed: 0
wheat; [8]
  Plant response rating, Wheat: 20
wheat; [9]
  Plant response rating, Wheat: 20
rice
  Plant response rating, Rice: 0
Barnyardgrass [1]
  Plant response rating, Barnyardgrass: 20
Barnyardgrass [2]; [7]
  Plant response rating, Barnyardgrass: 60
Barnyardgrass [2]; [4]
  Plant response rating, Barnyardgrass: 90
Barnyardgrass [2]; [5]
  Plant response rating, Barnyardgrass: 70
Barnyardgrass [2]; [6]
  Plant response rating, Barnyardgrass: 90
ducksalad
  Plant response rating, Ducksalad: 98
ryegrass, Italian; [7]
  Plant response rating, Ryegrass, Italian: 0
ryegrass, Italian; [4]
  Plant response rating, Ryegrass, Italian: 20
ryegrass, Italian; [5]
  Plant response rating, Ryegrass, Italian: 0
ryegrass, Italian; [10]
  Ryegrass, Italian plant response rating: 30
Giant foxtail; [7]
  Plant response rating, Foxtail, Giant: 30
Giant foxtail; [4]
  Plant response rating, Foxtail, Giant: 80
Giant foxtail; [5]
  Plant response rating, Foxtail, Giant: 70
Giant foxtail; [6]
  Plant response rating, Foxtail, Giant: 90
blackgrass; [8]
  Plant response rating, Blackgrass: 20
blackgrass; [9]
  Plant response rating, Blackgrass: 30
sedge, umbrella
  Plant response rating, Sedge, Umbrella: 0
galium; [8]
  Plant response rating, Galium: 0
galium; [9]
  Plant response rating, Galium: 30
corn; [8]
  Plant response rating, Corn: 0
corn; [9]
  Plant response rating, Corn: 0
